pIC50: −log10 of the molar value.
target: human PDE4D catalytic domain (UniProt no. Q08499) (Homo sapiens (Human), UniProt Q08499); experiment: PDE4 assay (TR-FRET, FAM-cAMP cleavage); type: biochemical; conditions: human PDE4D catalytic domain; molar concentration giving 50% inhibition of substrate cleavage; read-out: PDE4 IC50 range
Summary of the method: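 PDE4D catalytic domain ([…]) was incubated with unlabelled cAMP plus FAM-cAMP and titrated compound, stopped with binding buffer of metal-ion nanoparticles and Tb donor. AMP generation read by TR-FRET; IC50 as 50% inhibition of cleavage versus controls, reported as nM ranges.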

Chain of human PDE4D catalytic domain (Q08499 380-740 limits assumed): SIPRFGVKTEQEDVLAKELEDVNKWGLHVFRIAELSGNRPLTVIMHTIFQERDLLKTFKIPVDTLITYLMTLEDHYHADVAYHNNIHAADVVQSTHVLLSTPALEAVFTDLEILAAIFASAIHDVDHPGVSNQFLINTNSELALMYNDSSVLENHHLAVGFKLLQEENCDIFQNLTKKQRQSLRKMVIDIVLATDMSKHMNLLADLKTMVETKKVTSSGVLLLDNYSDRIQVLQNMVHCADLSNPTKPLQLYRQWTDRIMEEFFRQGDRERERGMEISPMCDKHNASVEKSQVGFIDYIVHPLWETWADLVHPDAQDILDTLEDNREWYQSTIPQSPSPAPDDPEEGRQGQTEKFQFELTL

| Compound | pIC50 |
| --- | --- |
| CCc1nn(C[C@@H](C)COC(=O)C(C)C)c2c1C(=O)NCC1(CCOCC1)C2 [Example 160, [(2R)-3-(3-ethyl-4-oxo-spiro[6,8-dihydro-5H-pyrazolo[4,3-c]azepine-7,4′-tetrahydropyran]-1-yl)-2-methyl-propyl] 2-methylpropanoate] | > 7.00 |
| CCc1nn(CCCOC(=O)c2cccc(C(=O)NC(C)C)c2)c2c1C(=O)NCC1(CCOCC1)C2 [Example 154, 3-(3-ethyl-4-oxo-spiro[6,8-dihydro-5H-pyrazolo[4,3-c]azepine-7,4′-tetrahydropyran]-1-yl)propyl 3-(isopropylcarbamoyl)-benzoate] | > 7.00 |
| CCc1nn(C[C@@H](C)COC(=O)c2ccc(S(=O)(=O)N(C)C)cc2)c2c1C(=O)NCC1(CCOCC1)C2 [Example 4, [(2R)-3-(3-Ethyl-4-oxo-spiro[6,8-dihydro-5H-pyrazolo[4,3-c]azepine-7,4′-tetrahydro-pyran]-1-yl)-2-methyl-propyl] 4-(dimethylsulfamoyl)benzoate] | > 7.00 |
| CCc1nn(C[C@@H](C)COC(=O)c2ccc(C(F)(F)F)c(F)c2)c2c1C(=O)NCC1(CCOCC1)C2 [Example 219, [(2R)-3-(3-ethyl-4-oxo-spiro[6,8-dihydro-5H-pyrazolo[4,3-c]azepine-7,4′-tetrahydropyran]-1-yl)-2-methyl-propyl] 3-fluoro-4-(trifluoromethyl)benzoate] | > 7.00 |
| CCc1nn(CCCOC(=O)c2cccc(C(F)(F)F)c2Cl)c2c1C(=O)NCC1(CCOCC1)C2 [Example 123, 3-(3-ethyl-4-oxo-spiro[6,8-dihydro-5H-pyrazolo[4,3-c]azepine-7,4′-tetrahydropyran]-1-yl)propyl 2-chloro-3-(trifluoromethyl)benzoate] | > 7.00 |
| CCc1nn(CCCOC(=O)c2cccc(C(=O)N3CCN(C)CC3)c2)c2c1C(=O)NCC1(CCOCC1)C2 [Example 158, 3-(3-ethyl-4-oxo-spiro[6,8-dihydro-5H-pyrazolo[4,3-c]azepine-7,4′-tetrahydropyran]-1-yl)propyl 3-(4-methylpiperazine-1-carbonyl)benzoate] | 6.30 to 7.00 |
| CCc1nn(C[C@@H](C)COC(=O)c2ccc(F)c(F)c2)c2c1C(=O)NCC1(CCOCC1)C2 [Example 178, [(2R)-3-(3-ethyl-4-oxo-spiro[6,8-dihydro-5H-pyrazolo[4,3-c]azepine-7,4′-tetrahydropyran]-1-yl)-2-methyl-propyl] 3,4-difluorobenzoate] | > 7.00 |
| CCc1nn(C[C@@H](C)COC(=O)c2ccc(OC)cc2F)c2c1C(=O)NCC1(CCOCC1)C2 [Example 189, [(2R)-3-(3-ethyl-4-oxo-spiro[6,8-dihydro-5H-pyrazolo[4,3-c]azepine-7,4′-tetrahydropyran]-1-yl)-2-methyl-propyl] 2-fluoro-4-methoxy-benzoate] | > 7.00 |
| CCc1nn(CCCOC(=O)c2ccc(Cl)cc2OC)c2c1C(=O)NCC1(CCOCC1)C2 [Example 92, 3-(3-ethyl-4-oxo-spiro[6,8-dihydro-5H-pyrazolo[4,3-c]azepine-7,4′-tetrahydropyran]-1-yl)propyl 4-chloro-2-methoxy-benzoate] | > 7.00 |
| CCc1nn(C[C@@H](C)COC(=O)c2ccc(Cl)cc2OC)c2c1C(=O)NCC1(CCOCC1)C2 [Example 211, [(2R)-3-(3-ethyl-4-oxo-spiro[6,8-dihydro-5H-pyrazolo[4,3-c]azepine-7,4′-tetrahydropyran]-1-yl)-2-methyl-propyl] 4-chloro-2-methoxy-benzoate] | > 7.00 |
| CCc1nn(C[C@@H](C)COC(=O)c2cccc(Cl)c2F)c2c1C(=O)NCC1(CCOCC1)C2 [Example 198, [(2R)-3-(3-ethyl-4-oxo-spiro[6,8-dihydro-5H-pyrazolo[4,3-c]azepine-7,4′-tetrahydropyran]-1-yl)-2-methyl-propyl] 3-chloro-2-fluoro-benzoate] | > 7.00 |
| CCc1nn(CCCOC(=O)c2cc(F)ccc2F)c2c1C(=O)NCC1(CCOCC1)C2 [Example 47, 3-(3-ethyl-4-oxo-spiro[6,8-dihydro-5H-pyrazolo[4,3-c]azepine-7,4′-tetrahydropyran]-1-yl)propyl 2,5-difluorobenzoate] | > 7.00 |
| CCc1nn(C[C@@H](C)COC(=O)c2ccc(S(=O)(=O)C(C)C)cc2)c2c1C(=O)NCC1(CCOCC1)C2 [Example 243, [(2R)-3-(3-ethyl-4-oxo-spiro[6,8-dihydro-5H-pyrazolo[4,3-c]azepine-7,4′-tetrahydropyran]-1-yl)-2-methyl-propyl] 4-isopropylsulfonylbenzoate] | > 7.00 |
| CCc1nn(CCCOC(=O)C2CCCC2)c2c1C(=O)NCC1(CCOCC1)C2 [Example 9, 3-(3-ethyl-4-oxo-spiro[6,8-dihydro-5H-pyrazolo[4,3-c]azepine-7,4′-tetrahydropyran]-1-yl)propyl cyclopentanecarboxylate] | > 7.00 |
| CCc1nn(C[C@@H](C)COC(=O)c2ccc(Cl)cc2)c2c1C(=O)NCC1(CCOCC1)C2 [Example 175, [(2R)-3-(3-ethyl-4-oxo-spiro[6,8-dihydro-5H-pyrazolo[4,3-c]azepine-7,4′-tetrahydropyran]-1-yl)-2-methyl-propyl] 4-chlorobenzoate] | > 7.00 |
| CCc1nn(CCCOC(=O)c2ccc(C)cc2)c2c1C(=O)NCC1(CCOCC1)C2 [Example 1, 3-(3-Ethyl-4-oxo-spiro[6,8-dihydro-5H-pyrazolo[4,3-c]azepine-7,4′-tetrahydropyran]-1-yl)propyl 4-methylbenzoate] | > 7.00 |
| CCc1nn(CCCOC(=O)c2ccc(Cl)cc2F)c2c1C(=O)NCC1(CCOCC1)C2 [Example 85, 3-(3-ethyl-4-oxo-spiro[6,8-dihydro-5H-pyrazolo[4,3-c]azepine-7,4′-tetrahydropyran]-1-yl)propyl 4-chloro-2-fluoro-benzoate] | > 7.00 |
| CCc1nn(C[C@@H](C)COC(=O)c2ccc(C)cc2C)c2c1C(=O)NCC1(CCOCC1)C2 [Example 170, [(2R)-3-(3-ethyl-4-oxo-spiro[6,8-dihydro-5H-pyrazolo[4,3-c]azepine-7,4′-tetrahydropyran]-1-yl)-2-methyl-propyl] 2,4-dimethylbenzoate] | > 7.00 |
| CCc1nn(C[C@@H](C)COC(=O)c2cc(F)ccc2F)c2c1C(=O)NCC1(CCOCC1)C2 [Example 177, [(2R)-3-(3-ethyl-4-oxo-spiro[6,8-dihydro-5H-pyrazolo[4,3-c]azepine-7,4′-tetrahydropyran]-1-yl)-2-methyl-propyl] 2,5-difluorobenzoate] | > 7.00 |

same assay, conditions: read-out: PDE4 IC50 range

| Compound | pIC50 |
| --- | --- |
| CCc1nn(CC(C)(C)COC(=O)c2cccc(C(=O)N3CCN(C(C)=O)CC3)c2)c2c1C(=O)NCC1(CCOCC1)C2 [Example 349, [3-(3-ethyl-4-oxo-spiro[6,8-dihydro-5H-pyrazolo[4,3-c]azepine-7,4′-tetrahydropyran]-1-yl)-2,2-dimethyl-propyl] 3-(4-acetylpiperazine-1-carbonyl)benzoate] | > 7.00 |
| CCc1nn(CC(C)(C)COC(=O)c2ccc(C#N)cc2)c2c1C(=O)NCC1(CCOCC1)C2 [Example 288, [3-(3-ethyl-4-oxo-spiro[6,8-dihydro-5H-pyrazolo[4,3-c]azepine-7,4′-tetrahydropyran]-1-yl)-2,2-dimethyl-propyl] 4-cyanobenzoate] | > 7.00 |
| CCc1nn(CC(C)(C)COC(=O)c2cccc(C(=O)N3CCN(C)CC3)c2)c2c1C(=O)NCC1(CCOCC1)C2 [Example 348, [3-(3-ethyl-4-oxo-spiro[6,8-dihydro-5H-pyrazolo[4,3-c]azepine-7,4′-tetrahydropyran]-1-yl)-2,2-dimethyl-propyl] 3-(4-methylpiperazine-1-carbonyl)benzoate] | > 7.00 |
| CCNC(=O)c1cccc(C(=O)OCC(C)(C)Cn2nc(CC)c3c2CC2(CCOCC2)CNC3=O)c1 [Example 341, [3-(3-ethyl-4-oxo-spiro[6,8-dihydro-5H-pyrazolo[4,3-c]azepine-7,4′-tetrahydropyran]-1-yl)-2,2-dimethyl-propyl] 3-(ethylcarbamoyl)-benzoate] | > 7.00 |
| CCc1nn(CC(C)(C)COC(=O)c2ccc(C#N)c(F)c2)c2c1C(=O)NCC1(CCOCC1)C2 [Example 297, [3-(3-ethyl-4-oxo-spiro[6,8-dihydro-5H-pyrazolo[4,3-c]azepine-7,4′-tetrahydropyran]-1-yl)-2,2-dimethyl-propyl] 4-cyano-3-fluoro-benzoate] | > 7.00 |
| CCc1nn(CC(C)(C)COC(=O)c2cccc(C(=O)NC)c2)c2c1C(=O)NCC1(CCOCC1)C2 [Example 340, [3-(3-ethyl-4-oxo-spiro[6,8-dihydro-5H-pyrazolo[4,3-c]azepine-7,4′-tetrahydropyran]-1-yl)-2,2-dimethyl-propyl] 3-(methylcarbamoyl)-benzoate] | > 7.00 |
| CCc1nn(CC(C)(C)COC(=O)c2ccc(C(=O)N3CCN(C)CC3)cc2)c2c1C(=O)NCC1(CCOCC1)C2 [Example 337, [3-(3-ethyl-4-oxo-spiro[6,8-dihydro-5H-pyrazolo[4,3-c]azepine-7,4′-tetrahydropyran]-1-yl)-2,2-dimethyl-propyl] 4-(4-methylpiperazine-1-carbonyl)benzoate] | > 7.00 |
| CCc1nn(CC(C)(C)COC(=O)c2ccc(Cl)c(C(F)(F)F)c2)c2c1C(=O)NCC1(CCOCC1)C2 [Example 314, [3-(3-ethyl-4-oxo-spiro[6,8-dihydro-5H-pyrazolo[4,3-c]azepine-7,4′-tetrahydropyran]-1-yl)-2,2-dimethyl-propyl] 4-chloro-3-(trifluoromethyl)benzoate] | > 7.00 |
| CCc1nn(CC2(COC(=O)c3cccc(OC)c3)CC2)c2c1C(=O)NCC1(CCOCC1)C2 [Example 354, [1-[(3-ethyl-4-oxo-spiro[6,8-dihydro-5H-pyrazolo[4,3-c]azepine-7,4′-tetrahydropyran]-1-yl)methyl]cyclopropyl]methyl 3-methoxybenzoate] | > 7.00 |
| CCc1nn(CCCCOC(=O)c2ccc(C)cc2)c2c1C(=O)NCC1(CCOCC1)C2 [Example 365, 4-(3-ethyl-4-oxo-spiro[6,8-dihydro-5H-pyrazolo[4,3-c]azepine-7,4′-tetrahydropyran]-1-yl)butyl 4-methylbenzoate] | > 7.00 |

Source: patent publication US10906915B2, “Substituted pyrazoloazepin-4-ones and their use as phosphodiesterase inhibitors” (LEO Pharma A/S, priority 2016, dated 2021)
